B1: E3: humanized, affinity matured anti-NGF antagonist antibody; variable regions SEQ ID NO:1 and 2; human IgG2a (A330P331 to S330S331), kappa (antibody, V domains shown)
VH: QVQLQESGPGLVKPSETLSLTCTVSGFSLIGYDLNWIRQPPGKGLEWIGIIWGDGTTDYNSAVKSRVTISKDTSKNQFSLKLSSVTAADTAVYYCARGGYWYATSYYFDYWGQGTLVTVS
VL: DIQMTQSPSSLSASVGDRVTITCRASQSISNNLNWYQQKPGKAPKLLIYYTSRFHSGVPSRFSGSGSGTDFTFTISSLQPEDIATYYCQQEHTLPYTFGQGTKLEIKRT
modifications: human IgG2a constant (A330S/P331S) and kappa constant missing

Experiments:
[1] = tested on: complete Freund's adjuvant (CFA)-induced chronic arthritis; assay: CFA-induced chronic arthritis in rats, vocalization test (Example 7); type: in vivo, rat
Excerpt: The analgesic effects of anti-NGF antibody, 911 (see Hongo et al., Hybridoma 19(3):215-227 (2000)) in complete Freund's adjuvant (CFA)-induced chronic arthritis in rats were investigated using the vocalization test, in comparison with indomethacine used as reference substance.
Fifty (50) male Lewis rats (LEWIS LEW/Crl Ico) (Charles River Belgium) weighing 150 g to 220 g at the beginning of the experimental phase were included in this study. […]
On day 0 (D0), arthritis was induced in rats by intradermal injection into the tail of 0.05 ml of a Mycobacterium butyricum (Difco, USA) suspension in mineral oil (10 mg/ml). On day 14 (D14), arthritic rats were included in the study according to their ability to vocalize upon gentle flexion of the hindpaw and by their arthritis index, evaluated using an inflammation score for each hind and forepaw (see Kuzuna et al., Chem. Pharm. Bull. (Tokyo) 23:1184-1191 (1975); Pearson et al., Arthritis Rheum. 2:440-459 (1959)). Animals were scored based on the following criteria: Score 0: normal aspect; Score 1: erythema; Score 2: erythema with slight edema; Score 3: strong inflammation without ankylosis; Score 4: ankylosis. […]
Four groups of 10 rats each were included in the study. […] On day 18 (D18), the nociceptive intensity was evaluated by gentle flexion of the hindpaw and the intensity of the level of vocalization was recorded for each animal. […]

[2] = tested on: moderate to severe pain from osteoarthritis of the knee; assay: Clinical study, osteoarthritis of the knee: WOMAC 3.1 index; type: in vivo, human; conditions: day 1 to day 28
Excerpt: Adult males and females (ages between 35 to 65) who were experiencing moderate-to-severe pain from osteoarthritis of the knee, but were in otherwise overall good health were enrolled in the study. During the screening period, patients were required to discontinue arthritis medications such as NSAIDs, cyclooxygenase type-2 (COX-2) inhibitors, and opiates at least 14 days prior to administration of anti-NGF antibody E3. Patients were allowed to use rescue medications of acetaminophen or ibuprofen with some restrictions based on laboratory findings or past medical history. […] Thirty-four patients were admitted to the study and assessed as inpatients for on Study Days -1, 1 and 2. […] The volume for each patient was calculated based on the subject's Day -1 weight and assigned dose level, ranging from 3-6 cc for cohort 1, 10-20 cc for cohort 2, 30-60 cc for cohort 3, and 100 cc for cohort 4 and cohort 5. […] Each domain was scored by determining the means of the VAS scores of the component questions. The total WOMAC 3.1TM was scored by determining the means of the scores from each of the 3 domains. […] Outcome was assessed as change from baseline (pain level during screening period), expressed as pain intensity difference (PID) or summed pain intensity difference (SPID) for different dose levels. […]

| Molecule | Nociceptive intensity ([1]; 10 mg/kg orally at D18, measured one hour after dosing) | % variation of nociceptive intensity vs vehicle-treated group ([1]; 10 mg/kg orally at D18, one hour after dosing) | WOMAC pain, physical function and stiffness score ([2]; 100 μg/kg) | WOMAC score ([2]; single i.v. dose) |
| --- | --- | --- | --- | --- |
| COc1ccc2c(c1)c(CC(=O)O)c(C)n2C(=O)c1ccc(Cl)cc1 [Indomethacin, reference compound] | 145.8 ± 29.9 mV | −85% | – | – |
| B1 | – | – | reduced significantly | reduced WOMAC score |
